Source: patent publication US6914045B2, “Glycopeptide antibiotics” (Wyeth Holdings Corporation, priority 2001, dated 2005)
Converted amounts (≈) assume the structure as drawn.

Experiments:
Assay in all cases: in vitro antibacterial evaluation, MIC by broth dilution
Type in all cases: cell-based
[1] = tested on: Enterococcus sp.; details: broth dilution, 18 hours at 35° C.; for MIC Enterococcus faecalis (ATCC 29212): strain ATCC 29212; for MIC Enterococcus faecalis (GC 2242): strain GC 2242; for MIC Enterococcus faecium (GC 2243): strain GC 2243; for MIC Enterococcus faecalis (GC 2691): strain GC 2691; for MIC Enterococcus faecalis (GC 3059): strain GC 3059; for MIC Enterococcus faecalis (GC 4552): strain GC 4552; for MIC Enterococcus faecalis (GC 4553): strain GC 4553; for MIC Enterococcus faecalis (GC 4554): strain GC 4554; for MIC Enterococcus faecium (GC 4556): strain GC 4556; for MIC Enterococcus faecium (GC 4557): strain GC 4557; for MIC Enterococcus avium (GC 4558): strain GC 4558; for MIC Enterococcus faecalis (GC 6189): strain GC 6189
Method in brief: (§1)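 Broth dilution per NCCLS standard M7-A2 in Muller-Hinton II […], with an inoculum of 5×10^5 CFU/mL and antibiotic spanning 64-0.06 μg/mL. The MIC is the lowest concentration that inhibits growth of the organism.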

[2] = tested on: Escherichia coli
Method in brief: as §1

[3] = tested on: Staphylococcus sp.; details: broth dilution, 18 hours at 35° C.; for MIC Staphylococcus aureus (GC 1131): strain GC 1131
Method in brief: as §1

[4] = tested on: Streptococcus sp.; details: broth dilution, 18 hours at 35° C.; for MIC Streptococcus pneumoniae (ATCC 6301): strain ATCC 6301; for MIC Streptococcus pneumoniae (GC 1894): strain GC 1894; for MIC Streptococcus pyogenes (GC 4563): strain GC 4563; for MIC Streptococcus agalactiae (GC 4564): strain GC 4564; for MIC Streptococcus pneumoniae (GC 4565): strain GC 4565
Method in brief: as §1

MIC Enterococcus faecalis (ATCC 29212) ([1]; inoculum 5×10^5 CFU/mL): 4 µg/mL (≈ 2.71 µM)
MIC Enterococcus faecalis (GC 2242) ([1]; inoculum 5×10^5 CFU/mL): 4 µg/mL (≈ 2.71 µM)
MIC Enterococcus faecium (GC 2243) ([1]; inoculum 5×10^5 CFU/mL): 4 µg/mL (≈ 2.71 µM)
MIC Enterococcus faecalis (GC 2691) ([1]; inoculum 5×10^5 CFU/mL): 4 µg/mL (≈ 2.71 µM)
MIC Enterococcus faecalis (GC 3059) ([1]; inoculum 5×10^5 CFU/mL): 4 µg/mL (≈ 2.71 µM)
MIC Enterococcus faecalis (GC 4552) ([1]; inoculum 5×10^5 CFU/mL): 4 µg/mL (≈ 2.71 µM)
MIC Enterococcus faecalis (GC 4553) ([1]; inoculum 5×10^5 CFU/mL): 4 µg/mL (≈ 2.71 µM)
MIC Enterococcus faecalis (GC 4554) ([1]; inoculum 5×10^5 CFU/mL): 2 µg/mL (≈ 1.36 µM)
MIC Enterococcus faecium (GC 4556) ([1]; inoculum 5×10^5 CFU/mL): 4 µg/mL (≈ 2.71 µM)
MIC Enterococcus faecium (GC 4557) ([1]; inoculum 5×10^5 CFU/mL): 4 µg/mL (≈ 2.71 µM)
MIC Enterococcus avium (GC 4558) ([1]; inoculum 5×10^5 CFU/mL): 4 µg/mL (≈ 2.71 µM)
MIC Enterococcus faecalis (GC 6189) ([1]; inoculum 5×10^5 CFU/mL): 4 µg/mL (≈ 2.71 µM)
MIC Enterococcus faecalis (ATCC 29212) [1]: 4 µg/mL (≈ 2.71 µM)
MIC Enterococcus faecalis (GC 2242) [1]: 4 µg/mL (≈ 2.71 µM)
MIC Enterococcus faecium (GC 2243) [1]: 4 µg/mL (≈ 2.71 µM)
MIC Enterococcus faecalis (GC 2691) [1]: 4 µg/mL (≈ 2.71 µM)
MIC Enterococcus faecalis (GC 3059) [1]: 4 µg/mL (≈ 2.71 µM)
MIC Enterococcus faecalis (GC 4552) [1]: 4 µg/mL (≈ 2.71 µM)
MIC Enterococcus faecalis (GC 4553) [1]: 4 µg/mL (≈ 2.71 µM)
MIC Enterococcus faecalis (GC 4554) [1]: 2 µg/mL (≈ 1.36 µM)
MIC Enterococcus faecium (GC 4556) [1]: 4 µg/mL (≈ 2.71 µM)
MIC Enterococcus faecium (GC 4557) [1]: 4 µg/mL (≈ 2.71 µM)
MIC Enterococcus avium (GC 4558) [1]: 4 µg/mL (≈ 2.71 µM)
MIC Enterococcus faecalis (GC 6189) [1]: 4 µg/mL (≈ 2.71 µM)
MIC Escherichia coli (ATCC 25922) ([2]; strain ATCC 25922, 18 hours at 35° C.): >64 µg/mL
MIC Escherichia coli (GC 4559) ([2]; strain GC 4559, 18 hours at 35° C.): >64 µg/mL
MIC Escherichia coli (GC 4560) ([2]; strain GC 4560, 18 hours at 35° C.): 4 µg/mL (≈ 2.71 µM)
MIC Staphylococcus aureus (GC 1131) ([3]; inoculum 5×10^5 CFU/mL): 4 µg/mL (≈ 2.71 µM)
MIC Staphylococcus aureus (ATCC 29213) ([3]; strain ATCC 29213): 4 µg/mL (≈ 2.71 µM)
MIC Staphylococcus aureus (GC 1131) [3]: 4 µg/mL (≈ 2.71 µM)
MIC Staphylococcus aureus (GC 3051) ([3]; strain GC 3051): 4 µg/mL (≈ 2.71 µM)
MIC Staphylococcus aureus (GC 3053) ([3]; strain GC 3053): 1 µg/mL (≈ 0.678 µM)
MIC Staphylococcus aureus (GC 4541) ([3]; strain GC 4541): 2 µg/mL (≈ 1.36 µM)
MIC Staphylococcus aureus (GC 4542) ([3]; strain GC 4542): 4 µg/mL (≈ 2.71 µM)
MIC Staphylococcus aureus-SMITH (GC 4543) ([3]; strain GC 4543): 4 µg/mL (≈ 2.71 µM)
MIC Staphylococcus aureus (GC 4544) ([3]; strain GC 4544): 2 µg/mL (≈ 1.36 µM)
MIC Staphylococcus aureus (GC 4545) ([3]; strain GC 4545): 4 µg/mL (≈ 2.71 µM)
MIC Coagulase Negative Staphylococcus (GC 4547) ([3]; strain GC 4547): 4 µg/mL (≈ 2.71 µM)
MIC Coagulase Negative Staphylococcus (GC 4548) ([3]; strain GC 4548): 1 µg/mL (≈ 0.678 µM)
MIC Coagulase Negative Staphylococcus (GC 4549) ([3]; strain GC 4549): 2 µg/mL (≈ 1.36 µM)
MIC Coagulase Negative Staphylococcus (GC 4551) ([3]; strain GC 4551): 1 µg/mL (≈ 0.678 µM)
MIC Coagulase Negative Staphylococcus (GC 6257) ([3]; strain GC 6257): 1 µg/mL (≈ 0.678 µM)
MIC Streptococcus pneumoniae (ATCC 6301) ([4]; inoculum 5×10^5 CFU/mL): <0.06 µg/mL
MIC Streptococcus pneumoniae (GC 1894) ([4]; inoculum 5×10^5 CFU/mL): <0.06 µg/mL
MIC Streptococcus pyogenes (GC 4563) ([4]; inoculum 5×10^5 CFU/mL): <0.06 µg/mL
MIC Streptococcus agalactiae (GC 4564) ([4]; inoculum 5×10^5 CFU/mL): <0.06 µg/mL
MIC Streptococcus pneumoniae (GC 4565) ([4]; inoculum 5×10^5 CFU/mL): <0.06 µg/mL
MIC Streptococcus pneumoniae (ATCC 6301) [4]: <0.06 µg/mL
MIC Streptococcus pneumoniae (GC 1894) [4]: <0.06 µg/mL
MIC Streptococcus pyogenes (GC 4563) [4]: <0.06 µg/mL
MIC Streptococcus agalactiae (GC 4564) [4]: <0.06 µg/mL
MIC Streptococcus pneumoniae (GC 4565) [4]: <0.06 µg/mL
Structure (SMILES): CC(c1ccccc1)C1NC(=O)CNC(=O)C(CO)NC(=O)C(C(O)C2CNC(=N)N2C2OC(CO)C(O)C(O)C2O)NC(=O)C(C(O)C2CNC(=N)N2)NC(=O)C(Cc2ccc(OC3OC(CO)C(OC4OC5COC(c6cccc(Oc7ccccc7)c6)OC5C(O)C4O)C(O)C3O)cc2)NC1=O (centres unmarked) [Example 170]
MIC Staphylococcus haemolyticus (GC 4546) ([3]; strain GC 4546): 8 µg/mL (≈ 5.42 µM)
